≈ marks a conversion by molar mass, not a printed value. Like-named read-outs stand apart in the source and are kept apart here.
How the values were obtained:
[1] = in vivo; cited from earlier work
[2] = 100 mg dose; cited from earlier work
[3] = system: AML patients with an IDH2 mutation; conditions: cited from earlier work
[4] = system: cancer cell lines containing endogenous or exogenously expressed mutant IDH2; conditions: cancer cell lines with endogenous or exogenously expressed mutant IDH2; cited from earlier work
[5] = system: IDH2 R140 and R172 mutant homodimers or heterodimers; conditions: cited from earlier work
physchem = type: physicochemical
Procedure: The water solubility of enasidenib and enasidenib-O-D-glucoside was investigated by suspending excess amounts of the two compounds in 200 μl of distilled water in a microcentrifuge tube at 25° C. for 12 h. Afterwards, each sample was centrifuged at 12,000×g for 20 min. The supernatant of each sample was then filtered through a 0.45-μm membrane filter and the concentration of the compound in the supernatant, which is defined as the water-soluble component, was measured by its absorbance at 254 nm using HPLC, and its absolute solubility was calculated in reference to the concentration-absorbance standard curve.

cell culture assays = conditions: cited from earlier work
[6] = system: mouse xenograft models of AML; conditions: cited from earlier work
[7] = clinical trials; cited from earlier work
UGT1A1 = target: T1, UGT1A1 (Homo sapiens, UniProt P22309); conditions: side effect: abnormal bilirubin metabolism; cited from earlier work
T1 sequence (P22309 26-533): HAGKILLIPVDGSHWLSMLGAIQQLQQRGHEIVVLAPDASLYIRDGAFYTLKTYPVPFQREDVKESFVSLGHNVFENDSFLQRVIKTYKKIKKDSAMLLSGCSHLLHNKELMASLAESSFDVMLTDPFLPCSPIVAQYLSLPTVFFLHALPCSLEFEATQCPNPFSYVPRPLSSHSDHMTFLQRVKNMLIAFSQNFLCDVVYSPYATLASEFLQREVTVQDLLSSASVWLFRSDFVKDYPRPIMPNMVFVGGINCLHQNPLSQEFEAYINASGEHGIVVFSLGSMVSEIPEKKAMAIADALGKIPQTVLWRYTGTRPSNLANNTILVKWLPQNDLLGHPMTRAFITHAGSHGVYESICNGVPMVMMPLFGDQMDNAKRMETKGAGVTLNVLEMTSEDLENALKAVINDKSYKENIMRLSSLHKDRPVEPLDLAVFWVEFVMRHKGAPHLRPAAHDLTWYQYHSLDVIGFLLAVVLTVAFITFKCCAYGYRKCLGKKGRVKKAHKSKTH

[8] = cited from earlier work
human AML patients = conditions: cited from earlier work

C[C@@H](Nc1nc(N[C@H](C)C(F)(F)F)nc(-c2cccc(Cl)n2)n1)C(F)(F)F [AG-881]
blood-brain barrier penetration [1]: can penetrate the blood-brain barrier

CC(C)(O)CNc1nc(Nc2ccnc(C(F)(F)F)c2)nc(-c2cccc(C(F)(F)F)n2)n1 [enasidenib, Enasidenib]
oral bioavailability [2]: 57%
AML patients with an IDH2 mutation who experienced complete remission ([3]; human, in vivo): 19.3%
overall response rate ([3]; single therapeutic, AML and relapsed/refractory-AML patients with an IDH2 mutation): 41%
2-HG concentration [4]: reduced the 2-HG concentration
lower inhibitory concentration for mutant IDH2 compared to the wild type IDH2 ([5]; R140 and R172 mutant homodimers or heterodimers versus wild type IDH2): approximately 40 fold
inhibition kinetics ([5]; kinetics assays): slow on/slow off tight binding inhibition kinetics
solubility at 12 h (physchem; 25 °C, water, thermodynamic from solid): 6 µg/mL (≈ 12.7 µM)
differentiation (cell culture assays): induced differentiation
2-HG concentration [6]: reduced the 2-HG concentration
patients who completely discontinued enasidenib [7]: 17%
patients who had to stop taking the drug as a result of adverse events [7]: 43%
patients with serious adverse events [7]: approximately 77%
UGT1A1 inhibition (UGT1A1): inhibition of UGT1A1
aqueous solubility [8]: less than 74 μg/mL
aqueous solubility ([8]; pH 7.4 (Yen et al. 2017)): 23 µM (≈ 10.9 µg/mL)
2-HG concentration (human AML patients): reduced the 2-HG concentration

CC(C)(CNc1nc(Nc2ccnc(C(F)(F)F)c2)nc(-c2cccc(C(F)(F)F)n2)n1)OC1O[C@H](CO)[C@@H](O)[C@H](O)[C@H]1O (stereo partly drawn) [enasidenib-O-D-glucoside]
water solubility (physchem): 40 µg/mL (≈ 62.9 µM)
water solubility relative to enasidenib (physchem): 7 times

From US20230193336A1, “ENASIDENIB GLYCOSIDES AND METHODS OF TREATING DISEASES ASSOCIATED WITH ISOCITRATE DEHYDROGENASE (IDH) DYSFUNCTION” (Double Rainbow Biosciences Inc., priority 2020, published 2023)
